Source: ChEMBL document CHEMBL4483862, “Open-source discovery of chemical leads for next-generation chemoprotective antimalarials” (2018)

Tested on: Plasmodium berghei
Assay: Luciferase/luciferin-expressing antifolate-resistant parasites were used to infect a culture of HepG2 cells that were pre-incubated with compounds. Infected hepatocytes emit light due to the luciferase reaction. Assay results are presented as the percent inhibition of light emission compared to control. […]
Format: functional
Settings: sporozoite; for IC90: read-out: LUCIFERASE INFECTION ASSAY - IC90

SMILES	IC90	also measured
Cc1cc(N)c(N)cc1C	6180 nM	IC50 (PBLUC_HILL_SLOPE 0.927, PBLUC_R_SQUARED 0.706, read-out: LUCIFERASE INFECTION ASSAY - IC50): 577 nM
O=C(Nc1ncccc1O)c1ccc(S(=O)(=O)NCc2ccco2)cc1	> 10000 nM	IC50 (PBLUC_HILL_SLOPE 0.839, PBLUC_R_SQUARED 0.334, read-out: LUCIFERASE INFECTION ASSAY - IC50): 1040 nM
Cc1cc(C)nc(-n2[nH]c(C)c(Cc3ccc(C(C)(C)C)cc3)c2=O)n1	> 9420 nM	IC50 (PBLUC_HILL_SLOPE 0.924, PBLUC_R_SQUARED 0.378, read-out: LUCIFERASE INFECTION ASSAY - IC50): 1030 nM
Cc1noc(C)c1S(=O)(=O)N(Cc1ccc(C(=O)NC2CC2)cc1)C1CC1	3500 nM	IC50 (PBLUC_HILL_SLOPE 0.781, PBLUC_R_SQUARED 0.696, read-out: LUCIFERASE INFECTION ASSAY - IC50): 210 nM
O/N=C1\CC(c2ccccc2)Sc2ccccc21 (configuration not stated)	> 12900 nM	IC50 (PBLUC_HILL_SLOPE 0.783, PBLUC_R_SQUARED 0.658, read-out: LUCIFERASE INFECTION ASSAY - IC50): 3880 nM
O=C(Nc1nc2ccc(Oc3ccccc3)cc2s1)C1=COCCO1	> 10000 nM	IC50 (PBLUC_HILL_SLOPE 0.789, PBLUC_R_SQUARED 0.599, read-out: LUCIFERASE INFECTION ASSAY - IC50): 5280 nM
CN(C)c1ccc(C(c2ccc(N(C)C)cc2)c2ccc(Cl)c(Cl)c2)cc1	> 8260 nM	IC50 (PBLUC_HILL_SLOPE 0.805, PBLUC_R_SQUARED 0.379, read-out: LUCIFERASE INFECTION ASSAY - IC50): 3910 nM
CC(=O)N1CCc2cc(S(=O)(=O)Nc3ccc(Cl)cc3)ccc21	> 9410 nM	IC50 (PBLUC_HILL_SLOPE 0.924, PBLUC_R_SQUARED 0.105, read-out: LUCIFERASE INFECTION ASSAY - IC50): > 9410 nM
Cc1c(C)n(CCCN(C)C)c2ncn3nc(COc4ccccc4)nc3c12	> 8720 nM	IC50 (PBLUC_HILL_SLOPE 0.81, PBLUC_R_SQUARED 0.755, read-out: LUCIFERASE INFECTION ASSAY - IC50): 821 nM
O=[N+]([O-])c1cc(/C=C/c2nc3ccccc3s2)ccc1N1CCOCC1	> 10000 nM	IC50 (PBLUC_HILL_SLOPE 0.872, PBLUC_R_SQUARED 0.699, read-out: LUCIFERASE INFECTION ASSAY - IC50): 1400 nM
Cc1cc(N2CCN(C)CC2)n2ncc(-c3ccccc3Cl)c2n1	> 9650 nM	IC50 (PBLUC_HILL_SLOPE 0.809, PBLUC_R_SQUARED 0.766, read-out: LUCIFERASE INFECTION ASSAY - IC50): 1460 nM
c1ccc2sc(-c3nc4ccccc4s3)nc2c1	> 10000 nM	IC50 (PBLUC_HILL_SLOPE 0.811, PBLUC_R_SQUARED 0.754, read-out: LUCIFERASE INFECTION ASSAY - IC50): 1160 nM
Cc1ccc[n+](CC(=O)c2ccc3c(c2)Cc2ccccc2-3)c1C	> 8370 nM	IC50 (PBLUC_HILL_SLOPE 0.83, PBLUC_R_SQUARED 0.466, read-out: LUCIFERASE INFECTION ASSAY - IC50): > 8370 nM
CCC(C)(C)c1ccc(Oc2ccc(NC(=O)COC(=O)c3cc(-c4cc(OC)c(OC)c(OC)c4)nc4ccccc34)cc2)cc1	> 10000 nM	IC50 (PBLUC_HILL_SLOPE 0.863, PBLUC_R_SQUARED 0.508, read-out: LUCIFERASE INFECTION ASSAY - IC50): 2170 nM
CCCOc1ccc(C(F)(F)F)cc1NC(=O)c1nc2nccc(C)n2n1	3000 nM	IC50 (PBLUC_HILL_SLOPE 0.895, PBLUC_R_SQUARED 0.844, read-out: LUCIFERASE INFECTION ASSAY - IC50): 258 nM
CN(C)CCNc1ccnc2c(-c3ccc4ccccc4c3)cnn12	> 9960 nM	IC50 (PBLUC_HILL_SLOPE 0.931, PBLUC_R_SQUARED 0.843, read-out: LUCIFERASE INFECTION ASSAY - IC50): 1060 nM
COc1cccc(-c2nc3ccc(NC(=O)CC(C)(C)C)cn3n2)c1	> 10000 nM	IC50 (PBLUC_HILL_SLOPE 0.895, PBLUC_R_SQUARED 0.614, read-out: LUCIFERASE INFECTION ASSAY - IC50): 974 nM
COc1cccc(Nc2nccc3c2cc(-c2cccc(OC)c2)n3C)c1	> 10000 nM	IC50 (PBLUC_HILL_SLOPE 0.902, PBLUC_R_SQUARED 0.605, read-out: LUCIFERASE INFECTION ASSAY - IC50): 2590 nM
COc1cccc(NC(=O)c2cc(C)n(Cc3cccs3)c2C)c1	> 9690 nM	IC50 (PBLUC_HILL_SLOPE 0.906, PBLUC_R_SQUARED 0.33, read-out: LUCIFERASE INFECTION ASSAY - IC50): 6440 nM
C=CCSc1nnc(-c2ccc(C(C)(C)C)cc2)n1-c1ccc(Cl)cc1	> 8590 nM	IC50 (PBLUC_HILL_SLOPE 0.788, PBLUC_R_SQUARED 0.735, read-out: LUCIFERASE INFECTION ASSAY - IC50): > 8590 nM
OC(c1cn2cc(-c3ccc(F)cc3)nc2s1)(C(F)(F)F)C(F)(F)F	6570 nM	IC50 (PBLUC_HILL_SLOPE 0.791, PBLUC_R_SQUARED 0.914, read-out: LUCIFERASE INFECTION ASSAY - IC50): 408 nM

SMILES	IC90	also measured
CCc1cccc2c(/C=C(\C#N)C(=O)C(C)(C)C)c[nH]c12	> 10000 nM	IC50 (PBLUC_HILL_SLOPE 0.872, PBLUC_R_SQUARED 0.606, read-out: LUCIFERASE INFECTION ASSAY - IC50): 6240 nM
Clc1ccc(/C=C/c2cnc3ccccc3n2)cc1	> 12400 nM	IC50 (PBLUC_HILL_SLOPE 0.854, PBLUC_R_SQUARED 0.483, read-out: LUCIFERASE INFECTION ASSAY - IC50): 2040 nM
COc1cccc(/C=N/NC(=O)C2CCCN(C(=S)NNC3CC4C=CC3C4)CC2)c1O (configuration not stated)	> 7210 nM	IC50 (PBLUC_HILL_SLOPE 0.853, PBLUC_R_SQUARED 0.602, read-out: LUCIFERASE INFECTION ASSAY - IC50): 1470 nM
Cc1ccc(NC(=O)c2cc3c(s2)CCCCCC3)nc1	5930 nM	IC50 (PBLUC_HILL_SLOPE 0.925, PBLUC_R_SQUARED 0.636, read-out: LUCIFERASE INFECTION ASSAY - IC50): 551 nM
CC(C)Cc1ccc(C(C)NC(=O)c2ccc(CN3CCCC3)cc2)cc1 (configuration not stated)	> 10000 nM	IC50 (PBLUC_HILL_SLOPE 0.907, PBLUC_R_SQUARED 0.512, read-out: LUCIFERASE INFECTION ASSAY - IC50): 2160 nM
Cc1ccc(/C=C2\CCc3c2nc2ccccc2c3C(=O)OCc2cccc(S(=O)(=O)N(C)C)c2)cc1	> 10000 nM	IC50 (PBLUC_HILL_SLOPE 0.892, PBLUC_R_SQUARED 0.634, read-out: LUCIFERASE INFECTION ASSAY - IC50): 1200 nM
CN1CCN(c2ccc(NC(=O)c3csc4c3CCCC4)cc2)CC1	4980 nM	IC50 (PBLUC_HILL_SLOPE 0.882, PBLUC_R_SQUARED 0.629, read-out: LUCIFERASE INFECTION ASSAY - IC50): 413 nM
CCc1c(C(=O)Nc2ccn(CCc3ccccn3)n2)cnn1C(C)(C)C	2230 nM	IC50 (PBLUC_HILL_SLOPE 0.847, PBLUC_R_SQUARED 0.391, read-out: LUCIFERASE INFECTION ASSAY - IC50): 166 nM
CC(C)(C)c1ccc(C(=O)Nc2cc(F)ccc2F)s1	550 nM	IC50 (PBLUC_HILL_SLOPE 0.906, PBLUC_R_SQUARED 0.913, read-out: LUCIFERASE INFECTION ASSAY - IC50): 48.7 nM
Cc1cc(C(=O)NCCSc2ccccc2)c(C)n1C(C)C	6440 nM	IC50 (PBLUC_HILL_SLOPE 0.93, PBLUC_R_SQUARED 0.762, read-out: LUCIFERASE INFECTION ASSAY - IC50): 607 nM
O=C(Nc1ccc(Cl)c(Cl)c1)Nc1ccnn1C1CCCCC1	> 10000 nM	IC50 (PBLUC_HILL_SLOPE 0.873, PBLUC_R_SQUARED 0.34, read-out: LUCIFERASE INFECTION ASSAY - IC50): > 10000 nM
O=C(NC1CCN(c2nccc(C(F)(F)F)n2)CC1)c1ccco1	> 9700 nM	IC50 (PBLUC_HILL_SLOPE 0.897, PBLUC_R_SQUARED 0.83, read-out: LUCIFERASE INFECTION ASSAY - IC50): 2600 nM
Cc1ccc2c(c1)C1CN(C)CCC1N2C(=O)c1cc2c(s1)CCCC2 (configuration not stated)	> 10000 nM	IC50 (PBLUC_HILL_SLOPE 0.917, 1.13, PBLUC_R_SQUARED 0.241, 0.572, read-out: LUCIFERASE INFECTION ASSAY - IC50): 2930 nM
Cc1ccsc1CN(C)C(C)C(=O)Nc1cc(C(F)(F)F)ccc1N1CCOCC1 (configuration not stated)	> 10000 nM	IC50 (PBLUC_HILL_SLOPE 0.840, 16.2, PBLUC_R_SQUARED 0.288, 0.265, read-out: LUCIFERASE INFECTION ASSAY - IC50): > 10000 nM
Cc1cc(C(=O)C(C)Sc2nnnn2C2CC2)c(C)n1-c1ccccc1 (configuration not stated)	7240 nM	IC50 (PBLUC_HILL_SLOPE 0.896, PBLUC_R_SQUARED 0.762, read-out: LUCIFERASE INFECTION ASSAY - IC50): 623 nM
CC(C)(C)c1ccc(NC(=O)c2ccc[nH]c2=S)cc1	656 nM	IC50 (PBLUC_HILL_SLOPE 0.943, PBLUC_R_SQUARED 0.946, read-out: LUCIFERASE INFECTION ASSAY - IC50): 63.8 nM
CCOC(=O)CSCc1noc(COc2ccc(Cl)cc2Cl)n1	260 nM	IC50 (PBLUC_HILL_SLOPE 0.923, PBLUC_R_SQUARED 0.877, read-out: LUCIFERASE INFECTION ASSAY - IC50): 24.1 nM
Cc1ccc(S(=O)(=O)Oc2cc(C)ccc2C)cc1	> 11900 nM	IC50 (PBLUC_HILL_SLOPE 0.836, PBLUC_R_SQUARED 0.347, read-out: LUCIFERASE INFECTION ASSAY - IC50): 4270 nM
CN(Cc1nc2ccccc2s1)Cn1cnc2c(=O)n(C)c(=O)n(C)c21	> 10000 nM	IC50 (PBLUC_HILL_SLOPE 0.862, PBLUC_R_SQUARED 0.121, read-out: LUCIFERASE INFECTION ASSAY - IC50): 9690 nM
c1ccc(CNCc2cn(-c3ccccc3)nc2-c2ccncc2)cc1	> 8760 nM	IC50 (PBLUC_HILL_SLOPE 0.853, PBLUC_R_SQUARED 0.208, read-out: LUCIFERASE INFECTION ASSAY - IC50): > 8760 nM
